Experimental data taken from patent US20260109714A1, “PYRIMIDINE-FUSED RING COMPOUND, AND PREPARATION METHOD THEREFOR AND USE THEREOF” (GENFLEET THERAPEUTICS (SHANGHAI) INC., priority 2022, published 2026).

What was measured:
[1] = Pharmacokinetic evaluation test in mice
Experimental: (§2) Test objective: Male CD-1 mice were used as test animals. The drug concentrations in plasma of mice at various times were determined by LC/MS/MS after intravenous and oral administration of the test compounds. The pharmacokinetic behavior of the test compounds in mice was studied and their pharmacokinetic characteristics were evaluated.
(§3) Test methods: test animals: 60 healthy adult male CD-1 mice, aged 6-8 weeks and weighing about 30 g, and divided into 10 groups, including IV groups (intravenous injection group, five groups), with 6 mice in each group; and PO groups (oral administration group, five groups), with 6 mice in each group.
(§4) Preparation of drug solution: IV group: Taking 10 mL sample solution as an example, 2 mg sample was weighed, 0.5 mL DMSO and 1 mL Solutol HS 15 were sequentially added, and then 8.5 mL 6% HP-β-CD was added, and stirred ultrasonically to obtain a clear solution of 0.2 mg/mL.
(§5) PO group 1: Taking 10 mL sample solution as an example, 10 mg sample was weighed, 0.5 mL DMSO and 1 mL Solutol HS 15 were sequentially added, and then 8.5 mL 6% HP-β-CD was added, and stirred ultrasonically to obtain a 1 mg/mL solution.
(§6) PO group 2: A 3 mg/mL solution of the sample was prepared according to the preparation method for PO group 1.
(§7) Administration: After overnight fasting, the mice in the IV group were administered with a volume of 5 mL/kg at a dose of 1 mg/kg.
(§8) PO group 1: The mice were administered with a volume of 10 mL/kg at a dose of 10 mg/kg.
(§9) PO group 2: The mice were administered with a volume of 10 mL/kg at a dose of 30 mg/kg.
(§10) Experimental operations: Male CD-1 mice in the intravenous injection group and oral administration group were given the test compound, respectively. After that, 50 μl of blood was periodically collected into a K2EDTA anticoagulation tube at 0.0833, 0.25, 0.5, 1, 2, 4, 6, 8 and 24 hrs, and the plasma was separated by centrifugation at 4° C. and 8000 rpm for 15 min. The plasma was stored in dry ice at −80° C. 4 hrs after administration, the animals were allowed to free access to food. The contents of the test compounds in plasma of mice after intravenous and oral administration were determined by LC/MS/MS. The linear range of the method was 1-3000 ng/ml. The plasma samples were treated with acetonitrile to precipitate the protein and then analyzed.

[2] = test system: AGS human gastric cancer cell line with KRAS G12D mutation; test: Cell proliferation inhibition experiment, 3D CellTiter-Glo, AGS; format: cell-based; conditions: AGS cells, 3D spheroid, 5 days
Method in brief: (§1)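 3D spheroids (800 AsPC-1 or 400 AGS cells/well) established overnight, then treated with 3.16-fold compound dilutions (0.1% DMSO) for 5 days. Viability read by CellTiter-Glo 3D luminescence; inhibition normalised to DMSO and medium blank, IC50 by four-parameter fit.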

[3] = test system: AsPC-1 human pancreatic cancer cell with KRAS G12D mutation; test: Cell proliferation inhibition experiment, 3D CellTiter-Glo, AsPC-1; format: cell-based; conditions: AsPC-1 cells, 3D spheroid, 5 days
Method in brief: as §1

[4] = test system: AGS p-ERK; test: Cell assay for p-ERK (HTRF, Advance ERK phospho-T202/Y204 kit); format: cell-based, human; conditions: AGS cells (KRAS G12D), 3 hrs with compound, inhibition of p-ERK level
Method in brief: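 KRAS G12D AGS gastric cancer cells were plated overnight, then exposed 3 h to 3.16-fold compound dilutions at 0.1% DMSO final. Lysates were probed for ERK phospho-T202/Y204 by HTRF after 4 h. Inhibition relative to DMSO and blank was fitted by four-parameter regression for IC50.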

[5] = in vivo; conditions: male, CD-1, mouse, po, 30 mg/kg
Experimental: as §2, §3, §4, §5, §6, §7, §8, §9, §10

[6] = male, CD-1, mouse, plasma, po, 10 mg/kg

Row | F (%) bioavailability ([1]; PO group, 10 mpk, male CD-1 mice) | AUClast ([1]; PO group, 10 mpk, male CD-1 mice, plasma) | IC50 [2] | IC50 [3] | IC50 [4] | Compound | AUC(0-t) [1, 6] | bioavailability [1, 6] | AUC(0-t) [5] | bioavailability [5] | IC50 ([2]; Homo sapiens, 120 h) | IC50 ([3]; Homo sapiens, ASPC1, 120 h) | IC50 ([4]; Homo sapiens)
1 | 0.9% | 40.4 ng·h/mL | 2.53 nM | 32.8 nM | 1.58 nM | C#Cc1c(F)ccc2cc(O)cc(-c3nc4c5c(nc(OC[C@@]67CCCN6C[C@H](F)C7)nc5c3F)N3C[C@H]5CC[C@H](N5)[C@H]3CO4)c12 [Z131-1, 5-ethynyl-6-fluoro-4-((5aS,6S,9R)-1-fluoro-12-(((2R,7aS)-2-fluorotetrahydro-1H-pyrrolizin-7a(5H)-yl)methoxy)-5a,6,7,8,9,10-hexahydro-5H-4-oxo-3,10a,11,13,14-pentaaza-6,9-methanonaphtho[1,8-ab]hepten-2-yl)naphthalen-2-ol] |  |  |  |  |  |  | 
2 |  |  |  |  |  | CCc1cccc2cc(O)cc(-c3nc4c5c(nc(OC[C@@]67CCCN6C[C@H](F)C7)nc5c3F)N3C[C@H]5CC[C@H](N5)[C@H]3CO4)c12 [Z140-1, 5-ethyl-4-((5aS,6S,9R)-1-fluoro-12-(((2R,7aS s)-2-fluorotetrahydro-1H-pyrrolizin-7a(5H)-yl)methoxy)-5a,6,7,8,9,10-hexahydro-5H-4-oxa-3,10a,11,13,14-pentaaza-6,9-methanonaphtho[1,8-ab]hepten-2-yl)naphthalen-2-ol] | 42.1 ng·h/mL | 2.33% |  |  |  |  | 
3 |  |  |  |  |  | [2H]C([2H])([2H])[C@@H]1Oc2nc(-c3cc(N)cc(Cl)c3C(F)(F)F)c(F)c3nc(OC[C@@]45CCCN4CC(=C(F)F)C5)nc(c23)N2C[C@H]3CC[C@H](N3)[C@@H]12 [Z1054, 3-chloro-5-((5S,5aS,6S,9R)-12-(((S)-2-(difluoromethylene)tetrahydro-1H-pyrrolizin-7a(5H)-yl)methoxy)-1-fluoro-5-(methyl-d3)-5a,6,7,8,9,10-hexahydro-5H-4-oxa-3,10a,11,13,14-pentaaza-6,9-methanonaphtho[1,8-ab]hepten-2-yl)-4-(trifluoromethyl) aniline] |  |  | 3250 ng·h/mL | 29.4% | 0.37 nM | 1.29 nM | 0.43 nM
4 |  |  |  |  |  | C[C@@H]1Oc2nc(-c3cc(N)cc(Cl)c3C(F)(F)F)c(F)c3nc(OC[C@@]45CCCN4CC(=C(F)F)C5)nc(c23)N2C[C@H]3CC[C@H](N3)[C@@H]12 [Z1084, 3-chloro-5-((5S,5aS,6S,9R)-12-(((S)-2-(difluoromethylene)tetrahydro-1H-pyrrolizin-7a(5H)-yl)methoxy)-1-fluoro-5-methyl-5a,6,7,8,9,10-hexahydro-5H-4-oxa-3,10a,11,13,14-pentaaza-6,9-methanonaphtho[1,8-ab]hepten-2-yl)-4-(trifluoromethyl) aniline] |  |  | 2440 ng·h/mL | 20.7% | 0.38 nM | 1.23 nM | 0.12 nM
